From the supplement of paper PMC10307832

How the values were obtained:
Assay in all cases: relative viability (nuclei count vs DMSO), 5 days (fraction); higher = more cells survive
NCI-H2087 = tested on: NCI-H2087
Method in brief: (§1)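 One day after seeding in 1536-well plates, lung cancer cell lines were dosed by pin tool. Dosing was either single-drug or a fixed anchor-drug dose plus five library-drug doses (not always all listed) in √10 steps. After 5 days, nuclei were stained in one fix-and-stain step and counted on 4× images, and relative viability is the nuclei count of treated wells over that of vehicle wells, given as the median of duplicate plates.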

EMC-BAC-2 = tested on: EMC-BAC-2
Method in brief: as §1

NCI-H727 = tested on: NCI-H727
Method in brief: as §1

NCI-H2009 = tested on: NCI-H2009
Method in brief: as §1

NCI-H596 = tested on: NCI-H596
Method in brief: as §1

HARA = tested on: HARA
Method in brief: as §1

NCI-H2126 = tested on: NCI-H2126
Method in brief: as §1

HCC-44 = tested on: HCC-44
Method in brief: as §1

NCI-H3122 = tested on: NCI-H3122
Method in brief: as §1

NCI-H2023 = tested on: NCI-H2023
Method in brief: as §1

LOU-NH91 = tested on: LOU-NH91
Method in brief: as §1

NCI-H1666 = tested on: NCI-H1666
Method in brief: as §1

LCLC-103H = tested on: LCLC-103H
Method in brief: as §1

NCI-H441 = tested on: NCI-H441
Method in brief: as §1

NCI-H838 = tested on: NCI-H838
Method in brief: as §1

NCI-H2347 = tested on: NCI-H2347
Method in brief: as §1

NCI-H23 = tested on: NCI-H23
Method in brief: as §1

NCI-H650 = tested on: NCI-H650
Method in brief: as §1

BEN = tested on: BEN
Method in brief: as §1

NCI-H647 = tested on: NCI-H647
Method in brief: as §1

NCI-H1993 = tested on: NCI-H1993
Method in brief: as §1

201T = tested on: 201T
Method in brief: as §1

C[C@@H]1CN(CC(=O)Nc2ccc3c(c2)Cc2cccc(-c4cc(=O)cc(N5CCOCC5)o4)c2S3)C[C@H](C)O1 + CC(C)C[C@H](NC(=O)[C@H](Cc1ccccc1)NC(=O)c1cnccn1)B(O)O [Bortezomib] (partner 0.002 µM)
relative viability (NCI-H2087; first compound 0.04 µM): 0.751 | relative viability (NCI-H2087; first compound 0.1265 µM): 0.808 | relative viability (NCI-H2087; first compound 0.4 µM): 0.948 | relative viability (NCI-H2087; first compound 4 µM): 0.652 | relative viability (EMC-BAC-2; first compound 0.04 µM): 1.07 | relative viability (EMC-BAC-2; first compound 0.1265 µM): 1.1 | relative viability (EMC-BAC-2; first compound 0.4 µM): 1.06 | relative viability (EMC-BAC-2; first compound 4 µM): 0.985 | relative viability (NCI-H727; first compound 0.04 µM): 0.892 | relative viability (NCI-H727; first compound 0.1265 µM): 0.824 | relative viability (NCI-H727; first compound 0.4 µM): 0.804 | relative viability (NCI-H727; first compound 4 µM): 0.878 | relative viability (NCI-H2009; first compound 0.04 µM): 0.982 | relative viability (NCI-H2009; first compound 0.1265 µM): 1.01 | relative viability (NCI-H2009; first compound 0.4 µM): 0.933 | relative viability (NCI-H2009; first compound 4 µM): 0.714 | relative viability (NCI-H596; first compound 0.04 µM): 0.937 | relative viability (NCI-H596; first compound 0.1265 µM): 1.12 | relative viability (NCI-H596; first compound 0.4 µM): 1.01 | relative viability (NCI-H596; first compound 4 µM): 0.923 | relative viability (HARA; first compound 0.04 µM): 1.14 | relative viability (HARA; first compound 0.1265 µM): 1.15 | relative viability (HARA; first compound 0.4 µM): 1.09 | relative viability (HARA; first compound 4 µM): 1.05 | relative viability (NCI-H2126; first compound 0.04 µM): 1.13 | relative viability (NCI-H2126; first compound 0.1265 µM): 1.12 | relative viability (NCI-H2126; first compound 0.4 µM): 1.17 | relative viability (NCI-H2126; first compound 4 µM): 1.06 | relative viability (HCC-44; first compound 0.04 µM): 0.952 | relative viability (HCC-44; first compound 0.1265 µM): 0.938 | relative viability (HCC-44; first compound 0.4 µM): 0.982 | relative viability (HCC-44; first compound 4 µM): 0.796 | relative viability (NCI-H3122; first compound 0.04 µM): 1.06 | relative viability (NCI-H3122; first compound 0.1265 µM): 0.977 | relative viability (NCI-H3122; first compound 0.4 µM): 1.02 | relative viability (NCI-H3122; first compound 4 µM): 0.969 | relative viability (NCI-H2023; first compound 0.04 µM): 1.06 | relative viability (NCI-H2023; first compound 0.1265 µM): 0.969 | relative viability (NCI-H2023; first compound 0.4 µM): 0.783 | relative viability (NCI-H2023; first compound 4 µM): 0.876 | relative viability (LOU-NH91; first compound 0.04 µM): 0.495 | relative viability (LOU-NH91; first compound 0.1265 µM): 0.446 | relative viability (LOU-NH91; first compound 0.4 µM): 0.428 | relative viability (LOU-NH91; first compound 4 µM): 0.527 | relative viability (NCI-H1666; first compound 0.04 µM): 0.872 | relative viability (NCI-H1666; first compound 0.1265 µM): 0.993 | relative viability (NCI-H1666; first compound 0.4 µM): 0.823 | relative viability (NCI-H1666; first compound 4 µM): 0.643 | relative viability (LCLC-103H; first compound 0.04 µM): 1.19 | relative viability (LCLC-103H; first compound 0.1265 µM): 1.03 | relative viability (LCLC-103H; first compound 0.4 µM): 1.09 | relative viability (LCLC-103H; first compound 4 µM): 0.999 | relative viability (NCI-H441; first compound 0.04 µM): 0.6 | relative viability (NCI-H441; first compound 0.4 µM): 0.445 | relative viability (NCI-H441; first compound 4 µM): 0.489 | relative viability (NCI-H838; first compound 0.04 µM): 0.715 | relative viability (NCI-H838; first compound 0.1265 µM): 0.689 | relative viability (NCI-H838; first compound 0.4 µM): 0.865 | relative viability (NCI-H838; first compound 4 µM): 0.643 | relative viability (NCI-H2347; first compound 0.04 µM): 0.923 | relative viability (NCI-H2347; first compound 0.1265 µM): 1.03 | relative viability (NCI-H2347; first compound 0.4 µM): 1.2 | relative viability (NCI-H2347; first compound 4 µM): 0.958 | relative viability (NCI-H23; first compound 0.04 µM): 1.27 | relative viability (NCI-H23; first compound 0.1265 µM): 1.21 | relative viability (NCI-H23; first compound 0.4 µM): 1.03 | relative viability (NCI-H23; first compound 4 µM): 0.991 | relative viability (NCI-H650; first compound 0.04 µM): 0.742 | relative viability (NCI-H650; first compound 0.1265 µM): 0.801 | relative viability (NCI-H650; first compound 0.4 µM): 0.761 | relative viability (NCI-H650; first compound 4 µM): 0.552 | relative viability (BEN; first compound 0.04 µM): 0.624 | relative viability (BEN; first compound 0.1265 µM): 0.71 | relative viability (BEN; first compound 0.4 µM): 0.861 | relative viability (BEN; first compound 4 µM): 0.788 | relative viability (NCI-H647; first compound 0.04 µM): 1 | relative viability (NCI-H647; first compound 0.1265 µM): 1.02 | relative viability (NCI-H647; first compound 0.4 µM): 0.985 | relative viability (NCI-H647; first compound 4 µM): 0.484 | relative viability (NCI-H1993; first compound 0.04 µM): 1.12 | relative viability (NCI-H1993; first compound 0.1265 µM): 1.08 | relative viability (NCI-H1993; first compound 0.4 µM): 0.763 | relative viability (NCI-H1993; first compound 4 µM): 1.01 | relative viability (201T; first compound 0.04 µM): 1.12 | relative viability (201T; first compound 0.1265 µM): 1.04 | relative viability (201T; first compound 0.4 µM): 1.16 | relative viability (201T; first compound 4 µM): 1.09
